Patent publication US6344562B1, “Thiazole derivatives” (Hoffmann-La Roche Inc., priority 1998, dated 2002)

First: CCOC(=O)CC(CCCCNC(=O)c1sc(N=C2NCCCN2)nc1C)c1ccccc1 (racemic) [Example 173, ethyl rac-7-[[4-methyl-2-(tetrahydro-pyrimidin-2-ylideneamino)-thiazole-5-carbonyl]-amino]-3-phenyl-heptanoate]
Second: COC(=O)CCCCCNC(=O)c1csc(NC(=O)NCc2ccccc2)n1 [Example 137, methyl 6-{[2-(3-benzyl-ureido)-thiazole-4-carbonyl]-amino}-hexanoate]
The melting point of the first is lower: 137 to 139 °C for the first, 140 °C for the second.

First: CCOC(=O)CCNC(=O)CCNC(=O)c1csc(NC(=N)N)n1 [Example 7, ethyl 3-[3-[(2-guanidino-thiazole-4-carbonyl)-amino]-propionylamino]-propionate]
Second: CCOC(=O)CCNC(=O)CNC(=O)c1csc(NC(=O)NCc2ccccc2)n1 [Example 131, ethyl 3-[2-[[2-(3-benzyl-ureido)-thiazole-4-carbonyl]-amino]-acetylamino]-propionate]
The melting point of the first is lower: 154 to 157 °C for the first, 187 °C for the second.

Compared with `CCOC(=O)CCCC(=O)CNC(=O)c1csc(NC(=O)NCc2ccccc2)n1` [Example 82, ethyl 6-{[2-(3-benzyl-ureido)-thiazole-4-carbonyl]-amino}-5-oxo-hexanoate], `O=C(O)CCCC(=O)CNC(=O)c1csc(NC(=O)NCc2ccccc2)n1` [Example 83, 6-{[2-(3-benzyl-ureido)-thiazole-4-carbonyl]-amino}-5-oxo-hexanoic acid] is higher in melting point: 135 to 136 °C for the first, 169 °C for the second.

Going from `CC(C)(C)OC(=O)C[C@H](NC(=O)CNC(=O)c1csc(NC(=O)NCc2ccccc2)n1)C(=O)NCc1ccccc1` [Example 129, tert-butyl (S)-N-benzyl-3-[2-[[2-(3-benzyl-ureido)-thiazole-4-carbonyl]-amino]-acetylamino]-succinamate] to `CC(C)(C)OC(=O)C[C@H](NC(=O)CNC(=O)c1csc(NC(=O)NCc2ccccc2)n1)C(=O)NCc1cccnc1` [Example 163, tert-butyl (S)-3-[2-[[2-(3-benzyl-ureido)-thiazole-4-carbonyl]-amino]-acetylamino]-N-pyridin-3-ylmethyl-succinamate], the melting point rises from 123 °C to 185 °C.

Compared with `COc1cccc(NC(=O)[C@H](CC(=O)O)NC(=O)CNC(=O)c2csc(NC(=O)NCc3ccccc3)n2)c1` [Example 134, (S)-3-[2-[[2-(3-benzyl-ureido)-thiazole-4-carbonyl]-amino]-acetylamino]-N-(3-methoxy-phenyl)-succinamic acid], `O=C(O)C[C@H](NC(=O)CNC(=O)c1csc(NC(=O)NCc2ccccc2)n1)C(=O)Nc1ccccc1C(=O)O` [Example 136, (S)-2-[2-(2-{[2-(3-benzyl-ureido)-thiazole-4-carbonyl]-amino}-acetylamino)-3-carboxy-propionylamino]-benzoic acid] is higher in melting point: 185 °C for the first, 192 °C for the second.

First: CC(C)(C)OC(=O)C[C@H](NC(=O)CNC(=O)c1csc(NC(=O)NCc2ccccc2)n1)C(=O)Nc1ccccc1C(=O)OC(C)(C)C [Example 135, tert-butyl (S)-2-[2-[2-[[2-(3-benzyl-ureido)-thiazole-4-carbonyl]-amino]-acetylamino]-3-tert-butoxycarbonyl-propionylamino]-benzoate]
Second: CC(C)[C@H](NC(=O)[C@H](CC(=O)OC(C)(C)C)NC(=O)CNC(=O)c1csc(NC(=O)NCc2ccccc2)n1)C(=O)OC(C)(C)C [Example 141, tert-butyl (S)-2-[(S)-2-[2-[[2-(3-benzyl-ureido)-thiazole-4-carbonyl]-amino]-acetylamino]-3-tert-butoxycarbonyl-propionylamino]-3-methyl-butyrate]
The melting point of the first is higher: 116 °C for the first, 108 to 111 °C for the second.

Going from `O=C(O)CCCCCNC(=O)c1csc(NC(=O)NCc2ccccc2)n1` [Example 138, 6-{[2-(3-benzyl-ureido)-thiazole-4-carbonyl]-amino}-hexanoic acid] to `CC(C)(C)OC(=O)N[C@@H](CCCCNC(=O)c1csc(NC(=O)NCc2ccccc2)n1)C(=O)O` [Example 146, (S)-6-{[2-(3-benzyl-ureido)-thiazole-4-carbonyl]-amino}-2-tert-butoxycarbonylamino-hexanoic acid], the melting point falls from 178 °C to 138 °C.

Going from `COC(=O)[C@H](CCCCNC(=O)c1csc(NC(=O)NCc2ccccc2)n1)NC(=O)OC(C)(C)C` [Example 145, methyl (S)-6-{[2-(3-benzyl-ureido)-thiazole-4-carbonyl]-amino}-2-tert-butoxycarbonylamino-hexanoate] to `CC(C)(C)OC(=O)N[C@H](Cc1ccc(NC(=O)c2csc(NC(=O)NCc3ccccc3)n2)cc1)C(=O)O` [Example 166, (R)-3-[4-[[2-(3-benzyl-ureido)-thiazole-4-carbonyl]-amino]-phenyl]-2-tert-butoxycarbonylamino-propionic acid], the melting point rises from 166 °C to 232 °C.

First: CCOC(=O)CCc1ccc(NC(=O)c2csc(NC(=O)NCc3ccccc3)n2)cc1 [Example 153, ethyl 3-[4-[[2-(3-benzyl-ureido)-thiazole-4-carbonyl]-amino]-phenyl]-propionate]
Second: O=C(O)CCc1ccc(NC(=O)c2csc(NC(=O)NCc3ccccc3)n2)cc1 [Example 154, 3-[4-[[2-(3-benzyl-ureido)-thiazole-4-carbonyl]-amino]-phenyl]-propionic acid]
The melting point of the first is lower: 194 °C for the first, 233 °C for the second.

Going from `CC(C)(C)OC(=O)C[C@H](NC(=O)CNC(=O)c1csc(NC(=O)NCc2ccccc2)n1)C(=O)NCc1ccccn1` [Example 161, tert-butyl (S)-3-[2-[[2-(3-benzyl-ureido)-thiazole-4-carbonyl]-amino]-acetylamino]-N-pyridin-2-ylmethyl-succinamate] to `CC(C)(C)OC(=O)C[C@H](NC(=O)CNC(=O)c1csc(NC(=O)NCc2ccccn2)n1)C(=O)NCc1ccccn1` [Example 167, tert-butyl (S)-N-pyridin-2-ylmethyl-3-(2-{[2-(3-pyridin-2-ylmethyl-ureido)-thiazole-4-carbonyl]-amino}-acetylamino)-succinamate], the melting point rises from 108 °C to 112 °C.

Going from `O=C(O)C[C@H](NC(=O)CNC(=O)c1csc(NC(=O)NCc2ccccn2)n1)C(=O)NCc1ccccn1` [Example 168, (S)-N-pyridin-2-ylmethyl-3-(2-{[2-(3-pyridin-2-ylmethyl-ureido)-thiazole-4-carbonyl]-amino}-acetylamino)-succinamic acid] to `O=C(O)CCNC(=O)c1cccc(NC(=O)c2csc(NC(=O)NCc3ccccc3)n2)c1` [Example 170, 3-(3-{[2-(3-benzyl-ureido)-thiazole-4-carbonyl]-amino}-benzoylamino)-propionic acid], the melting point falls from 164 °C to 157 °C.

In the case of `CC(C)(C)OC(=O)CCNC(=O)c1cccc(NC(=O)c2csc(NC(=O)NCc3ccccc3)n2)c1` [Example 169, tert-butyl 3-(3-{[2-(3-benzyl-ureido)-thiazole-4-carbonyl]-amino}-benzoylamino)-propionate], the melting point is reported as 212 °C.
